# According to patent publication US20230329236A1, “HERBICIDAL PYRIMIDINE DERIVATIVES” (MoA Technology Limited, priority 2020, published 2023):
# Key:
# [1] = tested on: Lolium multiflorum (LOLMU); assay: Post-emergence glasshouse test, visual injury, LOLMU; format: in vivo; details: 336 h, Table 3, post-emergence, 500 g/ha, 14±1 days post application
# Summary of the method: (§1)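 Percent visual injury relative to untreated plots is scored 14±1 days after treatment. Plants grow in sandy loam under controlled glasshouse conditions and are sprayed at BBCH 12-14 with an aqueous solution of compound in acetone/water (50:50) with 0.5% Tween 20, dosed in g/ha.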
# [2] = tested on: Echinochloa crus-gaffi (ECHCG); assay: Post-emergence glasshouse test, visual injury, ECHCG; format: in vivo, Echinochloa crus-galli; details: 336 h, Table 3, post-emergence, 500 g/ha, 14±1 days post application
# Summary of the method: as §1
# Veronica persica (VERPE) = assay: Post-emergence glasshouse test, visual injury, VERPE; format: in vivo; details: 336 h, 14±1 days post application
# Summary of the method: as §1
# [3] = tested on: Amaranthus retroflexus (AMARE); assay: Post-emergence glasshouse test, visual injury, AMARE; format: in vivo; details: 336 h, 14±1 days post application
# Summary of the method: as §1
# Glycine max (GLXMA) = assay: Post-emergence glasshouse test, visual injury, GLXMA; format: in vivo; details: Table 4, post-emergence, 14±1 days post application
# Description: (§2) Seeds of a variety of test species are grown in a sandy loam soil mixture, Lolium multiflorum (LOLMU), Amaranthus retroflexus (AMARE), Echinochloa crus-gaffi (ECHCG), Veronica persica (VERPE), Glycine max (GLXMA), Oryza sativa (ORYSA), Zea mays (ZEAMX), spring wheat (TRZAS), Ipomoea hederacea (IPOHE), Ipomoea purpurea (PHBPU), Stellaria media (STEME), Solanum nigrum (SOLNI), Digitaria sanguinalis (DIGSA), Setaria italica (SETIT), Alopecurus myosuroides (ALOMY) and Avena fatua (AVEFA).
# (§3) After sowing, at growth stage BBCH 12-14 (post-emergence), the plants are sprayed with an aqueous spray solution derived from the formulation of the technical active ingredient in acetone/water (50:50) solution containing 0.5% Tween 20 (polyoxyethlyene sorbitan monolaureate, CAS RN 9005-64-5). The test compounds are applied at the required concentration of active ingredient in g/ha. The test plants are then grown in a glasshouse under controlled environmental conditions and watered regularly as required. After 14±1 days post application (for post-emergence test), the test is evaluated by assessing the percentage damage caused to the plants in comparison with the untreated plots. The biological activities for post-emergence testing are shown below (Table 3 and Table 4) as a % visual injury.
# Oryza sativa (ORYSA) = assay: Post-emergence glasshouse test, visual injury, ORYSA; format: in vivo; details: Table 4, post-emergence, 14±1 days post application
# Description: as §2, §3
# Zea mays (ZEAMX) = assay: Post-emergence glasshouse test, visual injury, ZEAMX; format: in vivo; details: Table 4, post-emergence, 14±1 days post application
# Description: as §2, §3
# spring wheat (TRZAS) = assay: Post-emergence glasshouse test, visual injury, TRZAS; format: in vivo; details: Table 4, post-emergence, 14±1 days post application
# Description: as §2, §3
# [4] = tested on: Ipomoea hederacea (IPOHE); assay: Post-emergence glasshouse test, visual injury, IPOHE; format: in vivo; details: Table 4, post-emergence, 14±1 days post application
# Description: as §2, §3
# Stellaria media (STEME) = assay: Post-emergence glasshouse test, visual injury, STEME; format: in vivo; details: Table 4, post-emergence, 14±1 days post application
# Description: as §2, §3
# [5] = Table 4, post-emergence, 125 g/ha
# [6] = Table 4, post-emergence, 250 g/ha
# [7] = Table 4, post-emergence, 1000 g/ha
smiles,measurement,setting,value
Cc1cc(-c2cnc(NCc3ccncc3)nc2C2CC2)on1 [Compound 20],pest or weed control at 500 g/ha,[1],0%
same,pest or weed control at 500 g/ha,[2],0%
same,pest or weed control at 500 g/ha,"Veronica persica (VERPE); Table 3, post-emergence",30%
same,pest or weed control at 125 g/ha,Veronica persica (VERPE); [5],50%
same,pest or weed control at 250 g/ha,Veronica persica (VERPE); [6],60%
same,pest or weed control at 500 g/ha,"Veronica persica (VERPE); Table 4, post-emergence",70%
same,pest or weed control at 1000 g/ha,Veronica persica (VERPE); [7],90%
same,pest or weed control at 500 g/ha,"[3]; Table 3, post-emergence",80%
same,pest or weed control at 125 g/ha,[3]; [5],0%
same,pest or weed control at 250 g/ha,[3]; [6],0%
same,pest or weed control at 500 g/ha,"[3]; Table 4, post-emergence",50%
same,pest or weed control at 1000 g/ha,[3]; [7],90%
same,GLXMA % visual injury,Glycine max (GLXMA); 125 g/ha,30%
same,GLXMA % visual injury,Glycine max (GLXMA); 250 g/ha,20%
same,GLXMA % visual injury,Glycine max (GLXMA); 500 g/ha,40%
same,GLXMA % visual injury,Glycine max (GLXMA); 1000 g/ha,50%
same,ORYSA % visual injury,Oryza sativa (ORYSA); 125 g/ha,50%
same,ORYSA % visual injury,Oryza sativa (ORYSA); 250 g/ha,60%
same,ORYSA % visual injury,Oryza sativa (ORYSA); 500 g/ha,30%
same,ORYSA % visual injury,Oryza sativa (ORYSA); 1000 g/ha,60%
same,ZEAMX % visual injury,Zea mays (ZEAMX); 125 g/ha,20%
same,ZEAMX % visual injury,Zea mays (ZEAMX); 250 g/ha,50%
same,ZEAMX % visual injury,Zea mays (ZEAMX); 500 g/ha,50%
same,ZEAMX % visual injury,Zea mays (ZEAMX); 1000 g/ha,40%
same,TRZAS % visual injury,spring wheat (TRZAS); 125 g/ha,0%
same,TRZAS % visual injury,spring wheat (TRZAS); 250 g/ha,0%
same,TRZAS % visual injury,spring wheat (TRZAS); 500 g/ha,30%
same,TRZAS % visual injury,spring wheat (TRZAS); 1000 g/ha,20%
same,IPOHE % visual injury,[4]; 125 g/ha,0%
same,IPOHE % visual injury,[4]; 250 g/ha,0%
same,IPOHE % visual injury,[4]; 500 g/ha,0%
same,IPOHE % visual injury,[4]; 1000 g/ha,30%
same,STEME % visual injury,Stellaria media (STEME); 125 g/ha,0%
same,STEME % visual injury,Stellaria media (STEME); 250 g/ha,30%
same,STEME % visual injury,Stellaria media (STEME); 500 g/ha,40%
same,STEME % visual injury,Stellaria media (STEME); 1000 g/ha,95%
